Reference: publication PMC4049093 (ChemMedChem, 2012)
Entries after “also recorded” stand apart in the source; their conditions may differ. Read-outs that look alike come from different tables or passages of the source.

Columns and labels:
[1] = biological target: human cannabinoid CB2 receptor (Homo sapiens, UniProt P34972); assay: Competitive radioligand binding, displacement of [3H]-CP55,940 from hCB2
[2] = biological target: human cannabinoid CB1 receptor (Homo sapiens, UniProt P21554); assay: biochemical; assay type: binding; details: for CB1/CB2 selectivity ratio CB1 versus CB2: from Ki values at hCB1 and hCB2
Sequence of human cannabinoid CB1 receptor (P21554 whole entry): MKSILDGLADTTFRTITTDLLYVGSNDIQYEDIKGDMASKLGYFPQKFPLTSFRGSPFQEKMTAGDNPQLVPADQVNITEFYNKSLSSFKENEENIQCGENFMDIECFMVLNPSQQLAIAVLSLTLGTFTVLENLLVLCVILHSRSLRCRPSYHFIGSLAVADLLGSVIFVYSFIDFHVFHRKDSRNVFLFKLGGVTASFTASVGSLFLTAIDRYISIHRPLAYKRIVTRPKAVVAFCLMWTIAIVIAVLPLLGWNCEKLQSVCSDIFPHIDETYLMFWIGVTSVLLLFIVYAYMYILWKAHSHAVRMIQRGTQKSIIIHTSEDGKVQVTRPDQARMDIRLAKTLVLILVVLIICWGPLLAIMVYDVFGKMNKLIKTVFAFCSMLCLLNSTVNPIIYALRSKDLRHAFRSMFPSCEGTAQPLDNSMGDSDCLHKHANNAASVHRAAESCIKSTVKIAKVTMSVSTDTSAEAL

mouse cannabinoid tetrad = assay: Mouse cannabinoid tetrad; details: mice, i.p.; WIN 2.5 and 5 mg/kg, 13a 5 and 10 mg/kg
mouse vas deferens = assay: Isolated tissue assay: electrically evoked contractions of mouse vas deferens; details: 10^−7–1.8 × 10^−5 M, concentration-response curves

Sequence of human cannabinoid CB2 receptor (P34972 whole entry): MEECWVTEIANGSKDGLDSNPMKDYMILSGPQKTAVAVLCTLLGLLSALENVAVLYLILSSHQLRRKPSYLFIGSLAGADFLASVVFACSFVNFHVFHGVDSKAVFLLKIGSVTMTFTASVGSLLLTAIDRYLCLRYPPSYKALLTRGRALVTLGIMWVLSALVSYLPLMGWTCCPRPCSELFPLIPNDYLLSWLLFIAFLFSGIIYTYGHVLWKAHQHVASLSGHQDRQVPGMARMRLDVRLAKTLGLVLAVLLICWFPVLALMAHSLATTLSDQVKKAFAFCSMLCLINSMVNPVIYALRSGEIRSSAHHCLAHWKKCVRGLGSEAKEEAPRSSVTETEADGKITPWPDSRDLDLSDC

SMILES: CCCCCc1cc(O)c2c(c1)OC(C)(C)c1cn[nH]c1-2 [Compound 7, 1,4-Dihydro-4,4-dimethyl-7-pentylchromen[4,3-c]pyrazol-9-ol]
- Binding to CB2 receptor (in words) [1]: failed to bind to either CB1 or CB2 receptors
- Ki ([1]; read-out: hCB2 Ki, [3H]-CP55940 radioligand, membranes of transfected HEK293 EBNA cells, mean ± SEM of at least three experiments): 2.01 ± 0.5 µM
- Binding to CB1 receptor (in words) [2]: failed to bind to either CB1 or CB2 receptors
- CB1/CB2 selectivity ratio CB1 versus CB2 [2]: 0.5
- Ki ([2]; read-out: hCB1 Ki, [3H]-CP55940 radioligand, membranes of transfected HEK293 EBNA cells, mean ± SEM of at least three experiments): 4.1 ± 0.8 µM

SMILES: CCCCCc1cc(O)c2c(c1)OC(C)(C)c1cnn(C)c1-2 [Compound 8a, 1,4-Dihydro-1,4,4-trimethyl-7-pentylchromeno[4,3-c]pyrazol-9-ol]
- Binding to CB2 receptor (in words) [1]: failed to bind to either CB1 or CB2 receptors
- Ki [1]: 3.46 ± 1 µM
- Binding to CB1 receptor (in words) [2]: failed to bind to either CB1 or CB2 receptors
- Ki [2]: 4.7 ± 1.2 µM
- CB1/CB2 selectivity ratio CB1 versus CB2 [2]: 0.7

SMILES: CCCCCc1cc(O)c2c(c1)OC(C)(C)c1cn(C)nc1-2 [Compound 8b, 2,4-dihydro-2,4,4-trimethyl-7-pentylchromeno[4,3-c]pyrazol-9-ol]
- Binding to CB2 receptor (in words) [1]: failed to bind to either CB1 or CB2 receptors
- Ki [1]: > 40 µM
- Binding to CB1 receptor (in words) [2]: failed to bind to either CB1 or CB2 receptors
- Ki [2]: 22.1 ± 1.41 µM

SMILES: CCCCCc1cc(O)c2c(c1)OC(C)(C)c1cnn(CC)c1-2 [Compound 9a, 1-Ethyl-1,4-dihydro-4,4-dimethyl-7-pentylchromeno[4,3-c]pyrazol-9-ol]
- Binding to CB2 receptor (in words) [1]: failed to bind to either CB1 or CB2 receptors
- Ki [1]: > 40 µM
- Binding to CB1 receptor (in words) [2]: failed to bind to either CB1 or CB2 receptors
- Ki [2]: 9.61 µM

SMILES: CCCCCc1cc(O)c2c(c1)OC(C)(C)c1cn(CC)nc1-2 [Compound 9b, 2-Ethyl-2,4-dihydro-4,4-dimethyl-7-pentylchromeno[4,3-c]pyrazol-9-ol]
- Binding to CB2 receptor (in words) [1]: failed to bind to either CB1 or CB2 receptors
- Ki [1]: 4.45 ± 1.01 µM
- Binding to CB1 receptor (in words) [2]: failed to bind to either CB1 or CB2 receptors
- Ki [2]: > 40 µM

SMILES: CCCCCc1cc(O)c2c(c1)OC(C)(C)c1cnn(-c3ccc(Cl)c(Cl)c3)c1-2 [Compound 10a, 1-(3,4-Dichlorophenyl)-1,4-dihydro-4,4-dimethyl-7-pentylchromeno[4,3-c]pyrazol-9-ol]
- Ki [1]: > 40 µM
- Binding to CB1 receptor (in words) [2]: binds weakly to the CB1 cannabinoid receptor
- Ki [2]: 0.607 ± 0.151 µM

SMILES: CCCCCCC(C)(C)c1cc(O)c2c(c1)OC(C)(C)c1cn[nH]c1-2 [Compound 11, 1,4-Dihydro-4,4-dimethyl-7-(1,1-dimethylheptyl)chromeno[4,3-c]pyrazol-9-ol]
- Ki [1]: > 40 µM
- CB1/CB2 selectivity ratio CB1 versus CB2 [2]: >1000

SMILES: CCCCCCC(C)(C)c1cc(O)c2c(c1)OC(C)(C)c1cn(C)nc1-2 [Compound 12b, 7-(1,1-Dimethylheptyl)-2,4-dihydro-2,4,4-trimethylchromeno[4,3-c]pyrazol-9-ol]
- Ki [1]: > 40 µM
- CB1/CB2 selectivity ratio CB1 versus CB2 [2]: >1000

SMILES: CCCCCCC(C)(C)c1cc(O)c2c(c1)OC(C)(C)c1cnn(CC)c1-2 [Compound 13a, 7-(1,1-Dimethylheptyl)-1-ethyl-1,4-dihydro-4,4-dimethylchromeno[4,3-c]pyrazol-9-ol]
- Ki [1]: > 40 µM
- Antinociception in the hot-plate test (cannabinoid tetrad) (mouse cannabinoid tetrad): did not modify any of the signs of cannabinoid tetrad
- Catalepsy on a ring (cannabinoid tetrad) (mouse cannabinoid tetrad): did not modify any of the signs of cannabinoid tetrad
- Locomotor activity on the rota-rod test (cannabinoid tetrad) (mouse cannabinoid tetrad): did not modify any of the signs of cannabinoid tetrad
- Rectal temperature / hypothermia (cannabinoid tetrad) (mouse cannabinoid tetrad): did not modify any of the signs of cannabinoid tetrad
- CB1/CB2 selectivity ratio CB1 versus CB2 [2]: >1000
- Effect on electrically evoked contractile response of mouse vas deferens (mouse vas deferens): highest effectiveness; also recorded: most effective cannabinoid agonist

SMILES: CCCCCCC(C)(C)c1cc(O)c2c(c1)OC(C)(C)c1cn(CC)nc1-2 [Compound 13b, 7-(1,1-dimethylheptyl)-2-ethyl-2,4-dihydro-4,4-dimethylchromeno[4,3-c]pyrazol-9-ol]
- Ki [1]: > 40 µM
- CB1/CB2 selectivity ratio CB1 versus CB2 [2]: >1000

SMILES: CCCCCCC(C)(C)c1cc(O)c2c(c1)OC(C)(C)c1cnn(-c3ccc(Cl)c(Cl)c3)c1-2 [Compound 14a, 1-(3,4-Dichlorophenyl)-7-(1,1-dimethylheptyl)-1,4-dihydro-4,4-dimethylchromeno[4,3-c]pyrazol-9-ol]
- Binding to CB2 receptor (in words) [1]: reduced affinity for both receptors; also recorded: moderate affinity for CB2 receptor
- Binding to CB1 receptor (in words) [2]: reduced affinity for both receptors; also recorded: loss of affinity for CB1
- CB1/CB2 selectivity ratio CB1 versus CB2 [2]: 0.5

SMILES: CCCCCCC(C)(C)c1cc(O)c2c(c1)OC(C)(C)c1cnn(-c3ccc(Cl)cc3Cl)c1-2 [Compound 15a, 1-(2,4-Dichlorophenyl)-7-(1,1-dimethylheptyl)-1,4-dihydro-4,4-dimethylchromeno[4,3-c]pyrazol-9-ol]
- Ki [1]: > 40 µM
- CB1/CB2 selectivity ratio CB1 versus CB2 [2]: >1000

SMILES: Cc1c(C(=O)c2cccc3ccccc23)c2cccc3c2n1[C@H](CN1CCOCC1)CO3 [WIN55,212-2, reference compound]
- Antinociception in the hot-plate test (cannabinoid tetrad) (mouse cannabinoid tetrad): induced antinociceptive effect in the hot-plate test
- Catalepsy on a ring (cannabinoid tetrad) (mouse cannabinoid tetrad): catalepsy
- Locomotor activity on the rota-rod test (cannabinoid tetrad) (mouse cannabinoid tetrad): reduction of the locomotor activity
- Rectal temperature / hypothermia (cannabinoid tetrad) (mouse cannabinoid tetrad): hypothermia
